Assay results reported in ChEMBL document CHEMBL1201862, “PubChem BioAssay data set” (2004).
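Method: 48-hour compound exposure of cells in 96-well plates, five concentrations, linear interpolation of endpoints. The concentration for 50% growth inhibition is given as GI50.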 The source made the active and inactive calls. Rule as the data show it: active = GI50 up to about 1.1 µM and inactive = higher. Bridge positions count the residues as written; N and C are the ends. Square brackets hold non-standard residues; d marks the D form. Peptide text beside a SMILES is read from it. * marks the point of attachment. Cya = N[CH](CS(=O)(=O)O)C(=O)O; X49 = CC(C)CCCCCCCC(O)CC(=O)*; GABA = NCCCC(=O)O

What was measured:
Test in all cases: DTP human tumour cell line panel, 48 h
[1] = system: BT-549
[2] = system: SN12C
[3] = system: T47D
[4] = system: Hs-578T
[5] = system: HCT-116
[6] = system: M14
[7] = system: DU-145
[8] = system: HOP-92
[9] = system: HOP-62
[10] = system: NCI-H23
[11] = system: A498
[12] = system: KM12
[13] = system: SF-295
[14] = system: RXF 393
[15] = system: UACC-257
[16] = system: LOX IMVI
[17] = system: SK-MEL-5
[18] = system: U-251
[19] = system: K562
[20] = system: NCI-H522

Cc1nc(O)nc(NNCc2ccc(Cl)cc2)c1C(=O)Nc1ccc(Cl)cc1
GI50 [1]: > 100 µM (inactive) | GI50 [2]: > 100 µM (inactive) | GI50 [3]: > 100 µM (inactive) | GI50 [4]: > 100 µM (inactive) | GI50 [5]: > 100 µM (inactive) | GI50 [6]: > 100 µM (inactive) | GI50 [7]: 29.4 µM (inactive) | GI50 [8]: > 100 µM (inactive) | GI50 [9]: > 100 µM (inactive) | GI50 [10]: > 100 µM (inactive) | GI50 [11]: > 100 µM (inactive) | GI50 [12]: > 100 µM (inactive) | GI50 [13]: > 100 µM (inactive) | GI50 [14]: > 100 µM (inactive) | GI50 [15]: > 100 µM (inactive) | GI50 [16]: > 100 µM (inactive) | GI50 [17]: > 100 µM (inactive) | GI50 [18]: > 100 µM (inactive)

COC(=O)C1=C(O)C(C(=O)OC)[C@]2(O)[C@H](C(=O)OC)[C@H]1C[C@@H](c1ccc(Cl)cc1)[C@H]2C(=O)OC (stereo partly specified)
GI50 [1]: 6.12 µM (inactive) | GI50 [19]: 4.27 µM (inactive) | GI50 [2]: 5.16 µM (inactive) | GI50 [3]: 6.58 µM (inactive) | GI50 [4]: 3.89 µM (inactive) | GI50 [5]: 5.28 µM (inactive) | GI50 [6]: 4.72 µM (inactive) | GI50 [7]: 7.11 µM (inactive) | GI50 [8]: 19.3 µM (inactive) | GI50 [9]: 7.67 µM (inactive) | GI50 [10]: 7.18 µM (inactive) | GI50 [11]: 11.7 µM (inactive) | GI50 [12]: 11.5 µM (inactive) | GI50 [13]: 4.28 µM (inactive) | GI50 [14]: 4.62 µM (inactive) | GI50 [15]: 7.6 µM (inactive) | GI50 [16]: 10.7 µM (inactive) | GI50 [17]: 6.41 µM (inactive) | GI50 [18]: 6.05 µM (inactive)

OC1OC(c2ccco2)C(F)(F)C(F)(F)C1(F)F (stereo unspecified)
GI50 [1]: > 100 µM (inactive) | GI50 [19]: > 100 µM (inactive) | GI50 [2]: > 100 µM (inactive) | GI50 [3]: 46.2 µM (inactive) | GI50 [4]: 18.2 µM (inactive) | GI50 [5]: > 100 µM (inactive) | GI50 [6]: > 100 µM (inactive) | GI50 [7]: > 100 µM (inactive) | GI50 [8]: 38 µM (inactive) | GI50 [9]: > 100 µM (inactive) | GI50 [11]: > 100 µM (inactive) | GI50 [12]: 19.9 µM (inactive) | GI50 [13]: 68.7 µM (inactive) | GI50 [14]: > 100 µM (inactive) | GI50 [15]: > 100 µM (inactive) | GI50 [16]: > 100 µM (inactive) | GI50 [17]: 35.2 µM (inactive) | GI50 [18]: > 100 µM (inactive)

CCCCC1C(=O)N(c2ccc(S(=O)(=O)Nc3ccccn3)cc2)N(c2ccc(O)c(C(=O)O)c2)C1=O (stereo unspecified)
GI50 [1]: > 100 µM (inactive) | GI50 [19]: > 100 µM (inactive) | GI50 [2]: > 100 µM (inactive) | GI50 [3]: > 100 µM (inactive) | GI50 [4]: > 100 µM (inactive) | GI50 [5]: > 100 µM (inactive) | GI50 [6]: > 100 µM (inactive) | GI50 [7]: > 100 µM (inactive) | GI50 [20]: > 100 µM (inactive) | GI50 [8]: > 100 µM (inactive) | GI50 [10]: > 100 µM (inactive) | GI50 [11]: > 100 µM (inactive) | GI50 [12]: > 100 µM (inactive) | GI50 [13]: > 100 µM (inactive) | GI50 [14]: > 100 µM (inactive) | GI50 [15]: > 100 µM (inactive) | GI50 [16]: > 100 µM (inactive) | GI50 [17]: > 100 µM (inactive) | GI50 [18]: > 100 µM (inactive)

COC(=O)C(Cc1c[nH]c2ccccc12)NP(=O)(O)OCC1OC(n2cc(I)c(=O)[nH]c2=O)CC1O (stereo unspecified)
GI50 [1]: > 100 µM (inactive) | GI50 [19]: > 100 µM (inactive) | GI50 [2]: > 100 µM (inactive) | GI50 [3]: > 100 µM (inactive) | GI50 [4]: > 100 µM (inactive) | GI50 [5]: > 100 µM (inactive) | GI50 [6]: > 100 µM (inactive) | GI50 [7]: > 100 µM (inactive) | GI50 [20]: > 100 µM (inactive) | GI50 [8]: > 100 µM (inactive) | GI50 [9]: > 100 µM (inactive) | GI50 [10]: > 100 µM (inactive) | GI50 [11]: > 100 µM (inactive) | GI50 [12]: > 100 µM (inactive) | GI50 [13]: > 100 µM (inactive) | GI50 [15]: > 100 µM (inactive) | GI50 [16]: > 100 µM (inactive) | GI50 [17]: > 100 µM (inactive) | GI50 [18]: > 100 µM (inactive)

N#CCCN(CCC#N)c1ccc(/C=C2\N=C(c3ccccc3)N(NC(N)=S)C2=O)cc1
GI50 [1]: > 100 µM (inactive) | GI50 [19]: > 100 µM (inactive) | GI50 [2]: > 100 µM (inactive) | GI50 [3]: > 100 µM (inactive) | GI50 [4]: > 100 µM (inactive) | GI50 [5]: > 100 µM (inactive) | GI50 [6]: > 100 µM (inactive) | GI50 [7]: > 100 µM (inactive) | GI50 [8]: > 100 µM (inactive) | GI50 [9]: > 100 µM (inactive) | GI50 [11]: > 100 µM (inactive) | GI50 [12]: 12.9 µM (inactive) | GI50 [13]: > 100 µM (inactive) | GI50 [14]: > 100 µM (inactive) | GI50 [15]: > 100 µM (inactive) | GI50 [16]: > 100 µM (inactive) | GI50 [17]: > 100 µM (inactive) | GI50 [18]: > 100 µM (inactive)

O=c1[nH]c(=O)c2c([nH]1)[nH]c1ccc(Br)cc12
GI50 [1]: > 100 µM (inactive) | GI50 [2]: > 100 µM (inactive) | GI50 [3]: > 100 µM (inactive) | GI50 [4]: 45.3 µM (inactive) | GI50 [5]: > 100 µM (inactive) | GI50 [6]: > 100 µM (inactive) | GI50 [7]: > 100 µM (inactive) | GI50 [20]: > 100 µM (inactive) | GI50 [8]: 62.5 µM (inactive) | GI50 [9]: > 100 µM (inactive) | GI50 [10]: > 100 µM (inactive) | GI50 [11]: > 100 µM (inactive) | GI50 [12]: 21.8 µM (inactive) | GI50 [13]: > 100 µM (inactive) | GI50 [14]: > 100 µM (inactive) | GI50 [15]: > 100 µM (inactive) | GI50 [16]: > 100 µM (inactive) | GI50 [17]: 95.1 µM (inactive)

CCN(CC)CCNc1ccc([N+](=O)[O-])c2nc3ccccc3c(N)c12
GI50 [1]: 0.791 µM (active) | GI50 [19]: 0.316 µM (active) | GI50 [2]: 0.441 µM (active) | GI50 [3]: 0.662 µM (active) | GI50 [4]: 0.175 µM (active) | GI50 [5]: 0.127 µM (active) | GI50 [6]: 0.456 µM (active) | GI50 [7]: 2.94 µM (inactive) | GI50 [8]: 0.755 µM (active) | GI50 [9]: 1.48 µM (inactive) | GI50 [10]: 0.485 µM (active) | GI50 [11]: 1.22 µM (inactive) | GI50 [12]: 0.293 µM (active) | GI50 [13]: 0.498 µM (active) | GI50 [14]: 0.254 µM (active) | GI50 [15]: 0.931 µM (active) | GI50 [16]: 0.333 µM (active) | GI50 [17]: 0.166 µM (active) | GI50 [18]: 0.682 µM (active)

Cn1c(-c2ccccc2)cc(-c2ccc3c(c2)OCO3)c1-c1ccsc1
GI50 [1]: > 100 µM (inactive) | GI50 [19]: > 100 µM (inactive) | GI50 [2]: > 100 µM (inactive) | GI50 [3]: > 100 µM (inactive) | GI50 [4]: > 100 µM (inactive) | GI50 [5]: > 100 µM (inactive) | GI50 [6]: > 100 µM (inactive) | GI50 [7]: > 100 µM (inactive) | GI50 [8]: > 100 µM (inactive) | GI50 [9]: > 100 µM (inactive) | GI50 [10]: 52.8 µM (inactive) | GI50 [11]: > 100 µM (inactive) | GI50 [12]: > 100 µM (inactive) | GI50 [13]: > 100 µM (inactive) | GI50 [14]: > 100 µM (inactive) | GI50 [15]: > 100 µM (inactive) | GI50 [16]: > 100 µM (inactive) | GI50 [17]: > 100 µM (inactive) | GI50 [18]: > 100 µM (inactive)

CC(C)CCCCCCCC(O)CC(=O)NC(CS(=O)(=O)O)C(=O)NC(CC(C)C)C(=O)NCCCC(=O)NC(Cc1c[nH]cn1)C(=O)NC(C)C(=O)NC1C(=O)NC(C(C)O)C(=O)NC(Cc2c[nH]cn2)C(=O)NC(C)C(=O)NC(C(C)O)C(=O)OC1C (stereo unspecified) (X49-[Cya]L[GABA]HATTHAT; ester 6-C; configuration not given here)
GI50 [1]: > 25 µM (inactive) | GI50 [19]: > 25 µM (inactive) | GI50 [2]: > 25 µM (inactive) | GI50 [3]: > 25 µM (inactive) | GI50 [4]: > 25 µM (inactive) | GI50 [5]: > 25 µM (inactive) | GI50 [6]: > 25 µM (inactive) | GI50 [7]: > 25 µM (inactive) | GI50 [20]: > 25 µM (inactive) | GI50 [8]: > 25 µM (inactive) | GI50 [9]: > 25 µM (inactive) | GI50 [10]: > 25 µM (inactive) | GI50 [11]: > 25 µM (inactive) | GI50 [12]: > 25 µM (inactive) | GI50 [13]: > 25 µM (inactive) | GI50 [15]: > 25 µM (inactive) | GI50 [16]: > 25 µM (inactive) | GI50 [17]: > 25 µM (inactive) | GI50 [18]: > 25 µM (inactive)
